Results taken from US11390644B2, “Raman tag” (Purdue Research Foundation, priority 2014, dated 2022).
“Also recorded” adds a separate entry of the source.

How the values were obtained:
[1] = MTT cell-viability assay of tagged cholesterols; format: cell-based, Chinese hamster; settings: Chinese hamster; CHO cells, 48 h incubation; read-out: IC50 (cytotoxicity, MTT cell viability)
Description: (§1) Referring now to FIG. 3, the cytotoxicity of cholesterol mimics was evaluated by MTT cell-viability assays after treating CHO cells with cholesterol mimic. Various concentrations of cholesterol mimic were added to the culture media and the cells were incubated for 48 hours before the assays were conducted. […] Adding a phenyl group reduced the cytotoxicity. To directly visualize the toxic effect, we stained the cells with propidium iodide for late apoptosis and necrosis.
(§2) To evaluate the cytotoxicity of tagged cholesterols, we performed MTT cell-viability assays after treating CHO cells with tagged cholesterol. […] To directly visualize the toxic effect, we stained the cells with propidium iodide for late apoptosis and necrosis. […] Based on the signal level and the severity of toxicity, we conclude that PhDY-Chol is the most suitable cholesterol probe for live cell imaging, and we used PhDY-Chol in subsequent experiments.
(§3) CHO cells were grown in 96-well plates with density of 4000 cells per well. The next day, the cells were treated with each cholesterol probe at the indicated concentrations for 48 h. Cell-viability was measured with the MTT colorimetric assay (Sigma).

[2] = test system: CHO cells; assay: MTT cell-viability assay of tagged cholesterols; format: cell-based, Chinese hamster
Description: as §1, §2, §3

[3] = test system: CHO cells; assay: Propidium iodide staining for late apoptosis and necrosis; format: cell-based, Chinese hamster; settings: 30 μM, 24 h
Description: as §1
as §2, with “cholesterol. Various concentrations of tagged cholesterol were added to the culture media and the cells were incubated for 48 h before the assays were conducted.” for “cholesterol.”
Propidium iodide was used to stain late apoptotic or necrotic cells. CHO cells were incubated with 30 μM of tagged cholesterol molecules for 24 h. The propidium iodide staining was performed following protocols provided by the manufacturer (Life Technologies).

[4] = target: T1, ACAT-1 (Cricetulus griseus, UniProt Q60457); assay: ACAT-1 inhibition (avasimibe) blocking probe storage into lipid droplets; format: cell-based, Chinese hamster; settings: CHO cells
T1 construct: endogenous in cells; host or cells: CHO-K1 cells
T1 sequence (Q60457 1-546): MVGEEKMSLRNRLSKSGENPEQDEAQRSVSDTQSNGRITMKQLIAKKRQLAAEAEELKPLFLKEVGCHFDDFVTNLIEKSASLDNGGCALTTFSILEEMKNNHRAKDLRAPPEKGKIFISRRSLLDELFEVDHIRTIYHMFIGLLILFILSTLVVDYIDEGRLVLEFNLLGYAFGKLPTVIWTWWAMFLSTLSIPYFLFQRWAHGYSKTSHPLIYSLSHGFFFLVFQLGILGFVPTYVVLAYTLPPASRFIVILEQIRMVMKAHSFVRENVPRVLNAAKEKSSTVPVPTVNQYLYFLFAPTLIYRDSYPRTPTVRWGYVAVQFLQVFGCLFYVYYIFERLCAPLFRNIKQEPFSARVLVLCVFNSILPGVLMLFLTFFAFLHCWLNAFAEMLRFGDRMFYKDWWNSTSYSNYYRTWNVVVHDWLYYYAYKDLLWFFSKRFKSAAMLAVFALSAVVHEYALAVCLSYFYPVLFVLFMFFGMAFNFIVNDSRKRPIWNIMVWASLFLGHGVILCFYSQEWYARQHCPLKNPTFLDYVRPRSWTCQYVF
Description: (§4) It is hypothesized that PhDY-Chol is converted into PhDY-cholesteryl ester, by ACAT-1, the enzyme responsible for cholesterol esterification, as diagrammed in FIG. 4. To confirm the esterification of PhDY-Chol, we inhibited ACAT-1 with avasimibe for 24 h before addition of PhDY-Chol. […] Although LDs were still visible, the amount of PhDY-Chol signal found inside LDs reduced by 4 times (FIG. 4d). […] To determine where PhDY-Chol accumulates after ACAT-1 inhibition, we stained the cells with LysoTracker for lysosomes. […] To emphasize the physiological compatibility of our PhDY tag, we treated CHO cells with BODIPY-cholesterol.
as §4, with “important to note that PhDY-Chol-rich structures inside the CHO cells could not be stained by filipin (FIG. 10b), implicating that it is not in the free form. We hypothesize” for “hypothesized”, “esterification (FIG. 4b).” for “esterification, as diagrammed in FIG. 4.”
ACAT-1 inhibition was used to block cholesterol esterification either by adding a potent ACAT inhibitor, avasimibe, or by RNA interference with ACAT-1 shRNA plasmid. […]
(§5) To quantify PhDY-rich area, we first selected one cell and used “Threshold” function to select PhDY-rich cellular regions using ImageJ. […] To quantify PhDY-rich LDs, “Image Calculator” function in ImageJ was used to multiply SRS image of PhDY-Chol by TPEF image of BODIPY. Then, after using “Threshold” function to select PhDY-rich LDs, the number of PhDY-rich LDs was counted by “Analyze Particles” function. For each group, 7 cells were analyzed, and results were shown as mean±standard deviation (SD). […]

[5] = Photostability under continuous SRS / TPEF image acquisition; format: physicochemical; settings: 50 mM solution, acquired continuously for 150 s, one acquisition every 30 s
Description: FIG. 14. The photostability of PhDY-Chol and the photo-bleaching of BODIPY-Chol. The SRS images of 50 mM PhDY-Chol solution and TPEF images of 50 mM BODIPY-Chol solution were acquired continuously for 150 s (one acquisition every 30 s).

[6] = test system: M12 cells; assay: HPβCD treatment of PhDY-Chol-labeled M12 cells; format: cell-based, Chinese hamster; settings: HPβCD 500 μM, 30 h
From the text: (§6) We then treated the PhDY-Chol-labeled M12 cells with a cholesterol-mobilizing drug, hydroxypropyl-β-cyclodextrin (HPβCD). This drug is known to mediate lysosomal escape of cholesterol, and promote storage of excess cholesterol into LDs. […] These areas likely represent PhDY-cholesteryl ester stored in LDs. To confirm this possibility, we stained the cells with BODIPY for localization of LDs.
as §6, with “drug, HPβCD^40.” for “drug, hydroxypropyl-β-cyclodextrin (HPβCD).”, “into LDs^41.” for “into LDs.”
HPβCD was used as a drug treatment of NP-C disease. M12 cells were incubated with PhDY-Chol for 16 h as described above. […]
as §5

With `C#CCC[C@@H](C)[C@H]1CC[C@H]2[C@@H]3CC=C4C[C@@H](O)CC[C@]4(C)[C@H]3CC[C@]12C` [A-Chol, alkyne cholesterol] the IC50 at 48 h [1] was 16 µM, the “cytotoxicity in MTT cell-viability assay” value ([2]; CHO cells, various concentrations, 48 h) was “toxic to the cells” and the “late apoptosis and necrosis, propidium iodide staining” value (“late apoptosis and necrosis” below) [3] was “reduced density and extensive apoptosis”. For the same compound, the “late apoptosis and necrosis” value ([3]; listed as alkyne-cholesterol) was “induces apoptosis and necrosis”.
With `CC1=CC(C)=[N+]2C1=C(CC[C@@H](C)[C@H]1CC[C@H]3[C@@H]4CC=C5C[C@@H](O)CC[C@]5(C)[C@H]4CC[C@]13C)c1c(C)cc(C)n1[B-]2(F)F` [BODIPY-cholesterol, reference compound] the “amount of probe incorporated into LDs after ACAT-1 inhibition” value ([4]; ACAT-1 inhibited vs control) was “did not change; also recorded: no difference between the two groups” and the “photostability / photo-bleaching of signal” value [5] was “rapid photo-bleaching”.
With `C[C@H](CCC#Cc1ccccc1)[C@H]1CC[C@H]2[C@@H]3CC=C4C[C@@H](O)CC[C@]4(C)[C@H]3CC[C@]12C` [PhA-Chol, phenyl-alkyne cholesterol] the “late apoptosis and necrosis” value [3] was “minimum cell death”.
In the case of `C[C@H](CCC#CC#Cc1ccccc1)[C@H]1CC[C@H]2[C@@H]3CC=C4C[C@@H](O)CC[C@]4(C)[C@H]3CC[C@]12C` [PhDY-Chol, phenyl-diyne cholesterol], the cytotoxicity ([2]; 16 h incubation at 50 μM) is reported as “did not cause cytotoxicity”, the “late apoptosis and necrosis” value [3] is reported as “minimum cell death” and the “reduction of probe signal found inside LDs after ACAT-1 inhibition” value ([4]; avasimibe 10 μM 24 h pre-treatment) is reported as 4 times. The “localization after ACAT-1 inhibition (LysoTracker staining)” value ([4]; avasimibe treatment) was “partially located in lysosomes” and the “photostability / photo-bleaching of signal” value [5] was “No significant change of the SRS signal”.
For hydroxypropyl-β-cyclodextrin [HPβCD], the “amount of PhDY-Chol in M12 cells after treatment” value [6] was “decreased by half” and the “number of PhDY-rich LDs after treatment” value ([6]; BODIPY staining) was “increased significantly”.
